# Measurements from paper PMC5218480 (PLoS ONE, 2017).
# System: MV-4-11 cells
# Assay: Gene expression microarray analysis (Affymetrix PrimeView) and GSEA
# Format: cell-based, human
# Set-up: RFU PODN (11730768_x_at) / Fold change /veh PODN (11730768_x_at) / RFU LINC00158 (11744669_a_at) / Fold change /veh LINC00158 (11744669_a_at) / RFU DUSP10 (11751237_a_at) / Fold change /veh DUSP10 (11751237_a_at) / RFU ID3 (11757404_x_at) / Fold change /veh ID3 (11757404_x_at) / RFU PLEKHG5 (11737974_s_at) / Fold change /veh PLEKHG5 (11737974_s_at) / RFU LRRC4B (11730491_at) / Fold change /veh LRRC4B (11730491_at) / RFU GIMAP4 (11747438_a_at) / Fold change /veh GIMAP4 (11747438_a_at) / RFU KRT8 (11758183_x_at) / Fold change /veh KRT8 (11758183_x_at) / RFU CNN1 (11734310_a_at) / Fold change /veh CNN1 (11734310_a_at) / RFU VPS37D (11726825_at) / Fold change /veh VPS37D (11726825_at) / RFU C10orf10 (11716522_x_at) / Fold change /veh C10orf10 (11716522_x_at) / RFU KIR2DL2 /// KIR2DL4 /// KIR2DL5A /// KIR2DL5B /// KIR2DS1 /// KIR2DS2 /// KIR2DS3 /// KIR2DS4 /// KIR3DL3 /// KIR3DL3 /// KIR3DS1 (11738374_at) / Fold change /veh KIR2DL2 /// KIR2DL4 /// KIR2DL5A /// KIR2DL5B /// KIR2DS1 /// KIR2DS2 /// KIR2DS3 /// KIR2DS4 /// KIR3DL3 /// KIR3DL3 /// KIR3DS1 (11738374_at) / RFU C1QL1 (11718748_at) / Fold change /veh C1QL1 (11718748_at) / RFU TMPRSS4 (11747572_a_at) / Fold change /veh TMPRSS4 (11747572_a_at) / RFU HAMP (11756126_x_at) / Fold change /veh HAMP (11756126_x_at) / RFU RNFT2 (11725882_a_at) / Fold change /veh RNFT2 (11725882_a_at) / RFU NR4A2 (11747474_a_at) / Fold change /veh NR4A2 (11747474_a_at) / RFU ABCC12 (11746883_a_at) / Fold change /veh ABCC12 (11746883_a_at) / RFU TMEM136 (11760407_x_at) / Fold change /veh TMEM136 (11760407_x_at) / RFU CLDN22 /// WWC2 (11732394_at) / Fold change /veh CLDN22 /// WWC2 (11732394_at) / RFU HLA-DPB1 (11760878_x_at) / Fold change /veh HLA-DPB1 (11760878_x_at) / RFU SPINT1 (11716480_a_at) / Fold change /veh SPINT1 (11716480_a_at) / RFU GAP43 (11754022_s_at) / Fold change /veh GAP43 (11754022_s_at) / RFU A4GNT (11735810_at) / Fold change /veh A4GNT (11735810_at) / RFU PRB3 (11715151_x_at) / Fold change /veh PRB3 (11715151_x_at) / RFU TUBB4B (11761932_at) / Fold change /veh TUBB4B (11761932_at) / RFU CAPN14 (11732068_a_at) / Fold change /veh CAPN14 (11732068_a_at) / RFU TMCC2 (11721928_a_at) / Fold change /veh TMCC2 (11721928_a_at) / RFU IRGQ (11745062_a_at) / Fold change /veh IRGQ (11745062_a_at) / RFU FAM174B (11720279_a_at) / Fold change /veh FAM174B (11720279_a_at) / RFU TMPRSS4 (11748680_a_at) / Fold change /veh TMPRSS4 (11748680_a_at) / RFU FAM212B (11763350_a_at) / Fold change /veh FAM212B (11763350_a_at) / RFU PLEKHG5 (11743358_a_at) / Fold change /veh PLEKHG5 (11743358_a_at) / RFU ZSCAN30 (11745921_a_at) / Fold change /veh ZSCAN30 (11745921_a_at) / RFU CMKLR1 (11741424_a_at) / Fold change /veh CMKLR1 (11741424_a_at) / RFU LOC101060620 /// MAPK8IP1 (11723275_at) / Fold change /veh LOC101060620 /// MAPK8IP1 (11723275_at) / RFU SPTSSB (11747773_x_at) / Fold change /veh SPTSSB (11747773_x_at) / RFU PRSS12 (11739890_at) / Fold change /veh PRSS12 (11739890_at) / RFU BIN1 (11741810_x_at) / Fold change /veh BIN1 (11741810_x_at) / RFU WNT11 (11732464_a_at) / Fold change /veh WNT11 (11732464_a_at) / RFU C10orf10 (11716521_a_at) / Fold change /veh C10orf10 (11716521_a_at) / RFU C5orf56 (11738089_at) / Fold change /veh C5orf56 (11738089_at) / RFU CYB561 (11721691_x_at) / Fold change /veh CYB561 (11721691_x_at) / RFU ANKRD19P (11752326_a_at) / Fold change /veh ANKRD19P (11752326_a_at) / RFU OR2T12 /// OR2T33 /// OR2T8 (11738714_s_at) / Fold change /veh OR2T12 /// OR2T33 /// OR2T8 (11738714_s_at) / RFU VCAN (11748164_a_at) / Fold change /veh VCAN (11748164_a_at) / RFU JSRP1 (11732532_at) / Fold change /veh JSRP1 (11732532_at) / RFU KRTAP10-11 (11738290_x_at) / Fold change /veh KRTAP10-11 (11738290_x_at) / RFU MYO3A (11730013_a_at) / Fold change /veh MYO3A (11730013_a_at) / RFU EBF3 (11725865_a_at) / Fold change /veh EBF3 (11725865_a_at) / RFU CAMK2N1 (11719241_x_at) / Fold change /veh CAMK2N1 (11719241_x_at) / RFU C5orf56 (11738088_a_at) / Fold change /veh C5orf56 (11738088_a_at) / RFU OLFML3 (11715873_a_at) / Fold change /veh OLFML3 (11715873_a_at) / RFU LOC100653217 /// NTM (11731650_a_at) / Fold change /veh LOC100653217 /// NTM (11731650_a_at) / RFU MAPK11 (11762145_a_at) / Fold change /veh MAPK11 (11762145_a_at) / RFU FIZ1 (11724087_x_at) / Fold change /veh FIZ1 (11724087_x_at) / RFU OASL (11726364_x_at) / Fold change /veh OASL (11726364_x_at) / RFU SOX15 (11748057_x_at) / Fold change /veh SOX15 (11748057_x_at) / RFU CD79A (11719716_a_at) / Fold change /veh CD79A (11719716_a_at) / RFU HIST1H1D (11736915_at) / Fold change /veh HIST1H1D (11736915_at) / RFU CASKIN2 (11723855_a_at) / Fold change /veh CASKIN2 (11723855_a_at) / RFU LOC730098 (11760151_x_at) / Fold change /veh LOC730098 (11760151_x_at) / RFU OR4N2 (11742367_at) / Fold change /veh OR4N2 (11742367_at) / RFU PRRT2 (11749266_a_at) / Fold change /veh PRRT2 (11749266_a_at) / RFU SNX32 (11753110_a_at) / Fold change /veh SNX32 (11753110_a_at) / RFU CDHR5 (11726645_a_at) / Fold change /veh CDHR5 (11726645_a_at) / RFU RCAN1 (11760418_a_at) / Fold change /veh RCAN1 (11760418_a_at) / RFU FAM167A (11723789_a_at) / Fold change /veh FAM167A (11723789_a_at) / RFU FAM26E (11764081_at) / Fold change /veh FAM26E (11764081_at) / RFU ISYNA1 (11749810_s_at) / Fold change /veh ISYNA1 (11749810_s_at) / RFU ACY1 (11761880_at) / Fold change /veh ACY1 (11761880_at) / RFU 11764098_at / Fold change /veh 11764098_at / RFU SAMD14 (11745864_x_at) / Fold change /veh SAMD14 (11745864_x_at) / RFU NPB (11741838_a_at) / Fold change /veh NPB (11741838_a_at) / RFU TMPRSS6 (11731388_a_at) / Fold change /veh TMPRSS6 (11731388_a_at) / RFU KRTAP10-2 (11738614_at) / Fold change /veh KRTAP10-2 (11738614_at) / RFU ARHGAP8 /// PRR5-ARHGAP8 (11727945_x_at) / Fold change /veh ARHGAP8 /// PRR5-ARHGAP8 (11727945_x_at) / RFU KRTAP5-7 /// NADSYN1 (11734609_at) / Fold change /veh KRTAP5-7 /// NADSYN1 (11734609_at) / RFU RASL12 (11751679_a_at) / Fold change /veh RASL12 (11751679_a_at) / RFU CDKN2B (11736163_a_at) / Fold change /veh CDKN2B (11736163_a_at) / RFU PRF1 (11729649_at) / Fold change /veh PRF1 (11729649_at) / RFU, ZNF638 /// ZNF638-IT1 / Fold change vs veh, ZNF638 /// ZNF638-IT1 / RFU, PANK3 / Fold change vs veh, PANK3 / RFU, SH3YL1 / Fold change vs veh, SH3YL1 / RFU, ZEB2 / Fold change vs veh, ZEB2 / RFU, NRIP1 / Fold change vs veh, NRIP1 / RFU, PTTG1IP / Fold change vs veh, PTTG1IP / RFU, CAPN2 / Fold change vs veh, CAPN2 / RFU, MED14 / Fold change vs veh, MED14 / RFU, SNORA58 / Fold change vs veh, SNORA58 / RFU, C1orf63 / Fold change vs veh, C1orf63 / RFU, LRRFIP1 / Fold change vs veh, LRRFIP1 / RFU, NDUFAF7 / Fold change vs veh, NDUFAF7 / RFU, SLC12A2 / Fold change vs veh, SLC12A2 / RFU, IBTK / Fold change vs veh, IBTK / RFU, ESF1 / Fold change vs veh, ESF1 / Fold change vs veh, TMEM50B / RFU, TAOK1 / Fold change vs veh, TAOK1 / RFU, ACBD3 / Fold change vs veh, ACBD3 / RFU, TMA16 / Fold change vs veh, TMA16 / RFU, RWDD3 / Fold change vs veh, RWDD3 / RFU, BCAT1 / Fold change vs veh, BCAT1 / RFU, EDEM3 / Fold change vs veh, EDEM3 / RFU, TMEM33 / Fold change vs veh, TMEM33 / RFU, WDR75 / Fold change vs veh, WDR75 / RFU, AHCTF1 / Fold change vs veh, AHCTF1 / RFU, TFRC / Fold change vs veh, TFRC / RFU, ZDHHC17 / Fold change vs veh, ZDHHC17 / RFU, NOM1 / Fold change vs veh, NOM1 / RFU, ARL8B / Fold change vs veh, ARL8B / RFU, ZBTB11 / Fold change vs veh, ZBTB11 / RFU, TAMM41 / Fold change vs veh, TAMM41 / RFU, KIAA1704 /// LOC100996395 / Fold change vs veh, KIAA1704 /// LOC100996395 / RFU, ING1 / Fold change vs veh, ING1 / RFU, TRMT61B / Fold change vs veh, TRMT61B / RFU, FUBP3 / Fold change vs veh, FUBP3 / RFU, TP53 / Fold change vs veh, TP53 / RFU, TNKS2 / Fold change vs veh, TNKS2 / RFU, ZFP14 / Fold change vs veh, ZFP14 / RFU, ACTR2 / Fold change vs veh, ACTR2 / RFU, PPP3R1 / Fold change vs veh, PPP3R1 / RFU, PIK3R1 / Fold change vs veh, PIK3R1 / RFU, HNRNPA1 / Fold change vs veh, HNRNPA1 / RFU, RNF170 / Fold change vs veh, RNF170 / RFU, ZNF28 / Fold change vs veh, ZNF28 / RFU, RNGTT / Fold change vs veh, RNGTT / RFU, OGT / Fold change vs veh, OGT / RFU, BRD1 / Fold change vs veh, BRD1 / RFU, MARS / Fold change vs veh, MARS / RFU, ZNF655 / Fold change vs veh, ZNF655 / RFU, FAHD1 / Fold change vs veh, FAHD1 / RFU, BDP1 / Fold change vs veh, BDP1 / RFU, LRRCC1 / Fold change vs veh, LRRCC1 / RFU, ARID1A / Fold change vs veh, ARID1A / RFU, ZNF146 / Fold change vs veh, ZNF146 / RFU, ZNF330 / Fold change vs veh, ZNF330 / RFU, GPN3 / Fold change vs veh, GPN3 / RFU, C9orf123 / Fold change vs veh, C9orf123 / RFU, N4BP2L2 / Fold change vs veh, N4BP2L2 / RFU, ARFIP1 / Fold change vs veh, ARFIP1 / RFU, FAM179B / Fold change vs veh, FAM179B / RFU, BCL10 / Fold change vs veh, BCL10 / RFU, UHRF1BP1L / Fold change vs veh, UHRF1BP1L / RFU, BET1 / Fold change vs veh, BET1 / RFU, CNOT2 / Fold change vs veh, CNOT2 / RFU, ZNF268 / Fold change vs veh, ZNF268 / Fold change vs veh, ZNF507 / RFU, DGCR2 / Fold change vs veh, DGCR2 / RFU, WDSUB1 / Fold change vs veh, WDSUB1 / Fold change vs veh, HSP90B1 /// MIR3652 / RFU, ADSS / Fold change vs veh, ADSS / RFU, GK / Fold change vs veh, GK / RFU, ZNF148 / Fold change vs veh, ZNF148 / RFU, TAF9 / Fold change vs veh, TAF9 / RFU, SLC1A5 / Fold change vs veh, SLC1A5 / RFU, SLMO2 / Fold change vs veh, SLMO2 / RFU, ABCC4 / Fold change vs veh, ABCC4 / RFU, LOC101060439 /// RAP1B / Fold change vs veh, LOC101060439 /// RAP1B / RFU, RFX7 / Fold change vs veh, RFX7 / RFU, GTPBP10 / Fold change vs veh, GTPBP10 / RFU, CNEP1R1 / Fold change vs veh, CNEP1R1 / RFU, BIVM-ERCC5 /// ERCC5 / Fold change vs veh, BIVM-ERCC5 /// ERCC5 / RFU, ILF3 / Fold change vs veh, ILF3 / RFU 11762660_at / Fold change /veh 11762660_at / RFU VCAN (11757783_s_at) / Fold change /veh VCAN (11757783_s_at) / RFU DDX43 (11728927_at) / Fold change /veh DDX43 (11728927_at) / RFU KRT8 (11758188_x_at) / Fold change /veh KRT8 (11758188_x_at) / RFU NKD1 (11759106_at) / Fold change /veh NKD1 (11759106_at) / RFU SRD5A1 (11742802_a_at) / Fold change /veh SRD5A1 (11742802_a_at) / RFU TPSAB1 /// TPSB2 (11721975_s_at) / Fold change /veh TPSAB1 /// TPSB2 (11721975_s_at) / RFU GSTM3 (11746129_a_at) / Fold change /veh GSTM3 (11746129_a_at) / RFU IL23R (11737362_x_at) / Fold change /veh IL23R (11737362_x_at) / RFU TMEM51 (11727254_a_at) / Fold change /veh TMEM51 (11727254_a_at) / RFU PIWIL2 (11732686_x_at) / Fold change /veh PIWIL2 (11732686_x_at) / RFU ORM1 (11744905_x_at) / Fold change /veh ORM1 (11744905_x_at) / RFU CCDC152 (11743942_at) / Fold change /veh CCDC152 (11743942_at) / RFU ECM1 (11717891_a_at) / Fold change /veh ECM1 (11717891_a_at) / RFU IL23R (11748794_a_at) / Fold change /veh IL23R (11748794_a_at) / RFU TNFAIP8L3 (11732012_x_at) / Fold change /veh TNFAIP8L3 (11732012_x_at) / RFU MBOAT4 (11741988_at) / Fold change /veh MBOAT4 (11741988_at) / RFU 11764193_at / Fold change /veh 11764193_at / RFU TMEM53 (11763286_at) / Fold change /veh TMEM53 (11763286_at) / RFU MAGEB2 (11727129_at) / Fold change /veh MAGEB2 (11727129_at) / RFU TMEM200A (11744735_a_at) / Fold change /veh TMEM200A (11744735_a_at) / RFU CCDC152 (11751479_a_at) / Fold change /veh CCDC152 (11751479_a_at) / RFU FAM211A (11726209_a_at) / Fold change /veh FAM211A (11726209_a_at) / RFU RGS16 (11746705_a_at) / Fold change /veh RGS16 (11746705_a_at) / RFU VCAN (11755009_s_at) / Fold change /veh VCAN (11755009_s_at) / RFU RHOB (11743442_s_at) / Fold change /veh RHOB (11743442_s_at) / RFU RGS16 (11720943_a_at) / Fold change /veh RGS16 (11720943_a_at) / RFU RGS16 (11720944_at) / Fold change /veh RGS16 (11720944_at) / RFU, VPS4B / Fold change vs veh, VPS4B / RFU, CREB1 / Fold change vs veh, CREB1 / RFU, DNAJC13 / Fold change vs veh, DNAJC13 / RFU, GNAQ / Fold change vs veh, GNAQ / RFU, CDK5R1 / Fold change vs veh, CDK5R1 / RFU, ZRANB3 / Fold change vs veh, ZRANB3 / RFU, CUL4A / Fold change vs veh, CUL4A / RFU, CCNY / Fold change vs veh, CCNY / RFU, UFL1 / Fold change vs veh, UFL1 / RFU, COG3 / Fold change vs veh, COG3 / RFU, DIAPH2 / Fold change vs veh, DIAPH2 / RFU, SKA2 / Fold change vs veh, SKA2 / RFU, AFF3 / Fold change vs veh, AFF3 / RFU, LMF1 / Fold change vs veh, LMF1 / RFU, IPO11 / Fold change vs veh, IPO11 / RFU, DFFB / Fold change vs veh, DFFB / RFU, FOXP1 / Fold change vs veh, FOXP1 / RFU, CARD8 / Fold change vs veh, CARD8 / RFU, STRN3 / Fold change vs veh, STRN3 / RFU, ADK / Fold change vs veh, ADK / RFU, RASSF2 / Fold change vs veh, RASSF2 / RFU, WIPF1 / Fold change vs veh, WIPF1 / RFU, LARP1B / Fold change vs veh, LARP1B / RFU, RASA1 / Fold change vs veh, RASA1 / RFU, RB1 / Fold change vs veh, RB1 / RFU, PPFIA1 / Fold change vs veh, PPFIA1 / RFU, MAT2A / Fold change vs veh, MAT2A / RFU, CCT5 / Fold change vs veh, CCT5 / RFU, WDR92 / Fold change vs veh, WDR92 / RFU, CUX1 / Fold change vs veh, CUX1 / RFU, TTC7A / Fold change vs veh, TTC7A / RFU, TMEM135 / Fold change vs veh, TMEM135 / RFU, DEPTOR / Fold change vs veh, DEPTOR / RFU, CPM / Fold change vs veh, CPM / RFU, DNAJB6 / Fold change vs veh, DNAJB6 / RFU, CACNA2D3 / Fold change vs veh, CACNA2D3 / RFU, DTX4 / Fold change vs veh, DTX4 / RFU, TFCP2 / Fold change vs veh, TFCP2 / RFU, GMCL1 /// GMCL1P1 / Fold change vs veh, GMCL1 /// GMCL1P1 / RFU, AEBP2 / Fold change vs veh, AEBP2 / RFU, SNHG1 /// SNORD22 /// SNORD25 /// SNORD26 /// SNORD27 /// SNORD28 /// SNORD29 /// SNORD31 / Fold change vs veh, SNHG1 /// SNORD22 /// SNORD25 /// SNORD26 /// SNORD27 /// SNORD28 /// SNORD29 /// SNORD31 / Fold change (Aza/veh), C12orf56 (ProbeSet 11735607_a_at) / Fold change (ACY-1035/veh), C12orf56 (ProbeSet 11735607_a_at) / Fold change (Aza/veh), FGFR1OP (ProbeSet 11751329_s_at) / Fold change (ACY-1035/veh), FGFR1OP (ProbeSet 11751329_s_at) / Fold change (Aza/veh), VPS36 (ProbeSet 11739960_a_at) / Fold change (ACY-1035/veh), VPS36 (ProbeSet 11739960_a_at) / RFU SYPL1 (11715823_x_at) / Fold change /veh SYPL1 (11715823_x_at) / RFU IGFBP7 (11715501_s_at) / Fold change /veh IGFBP7 (11715501_s_at) / RFU REEP3 (11722064_at) / Fold change /veh REEP3 (11722064_at) / RFU IGLL1 (11728026_x_at) / Fold change /veh IGLL1 (11728026_x_at): dose or concentration left out as unconfirmed
# Conditions: MV-4-11 cells, 48 hours
smiles,measurement,value
Nc1ccc(-c2cccs2)cc1NC(=O)c1ccc2c(c1)cc(C1CC1)n2CCN1CCOCC1 [ACY-1035],Fold change /veh RGS16 (11720944_at),0.97
